In US11007273B2, “Prochelators as targeted prodrugs for prostate cancer and methods of making and using same” (Duke University, priority 2017, dated 2021):
“Also recorded” adds a separate entry of the source. Where two headings read alike, the source gives them in different places. One block for each compound: values may come before it.

Experiments:
GGT [1] = molecular target: T1, GGT (Homo sapiens, UniProt P19440); assay: Competition experiments vs. γE-pNA for GGT; assay type: biochemical; conditions: vs E-pNA; PBS, pH 7.4, 1 mM GlyGly
T1 sequence (P19440 whole entry, species assumed): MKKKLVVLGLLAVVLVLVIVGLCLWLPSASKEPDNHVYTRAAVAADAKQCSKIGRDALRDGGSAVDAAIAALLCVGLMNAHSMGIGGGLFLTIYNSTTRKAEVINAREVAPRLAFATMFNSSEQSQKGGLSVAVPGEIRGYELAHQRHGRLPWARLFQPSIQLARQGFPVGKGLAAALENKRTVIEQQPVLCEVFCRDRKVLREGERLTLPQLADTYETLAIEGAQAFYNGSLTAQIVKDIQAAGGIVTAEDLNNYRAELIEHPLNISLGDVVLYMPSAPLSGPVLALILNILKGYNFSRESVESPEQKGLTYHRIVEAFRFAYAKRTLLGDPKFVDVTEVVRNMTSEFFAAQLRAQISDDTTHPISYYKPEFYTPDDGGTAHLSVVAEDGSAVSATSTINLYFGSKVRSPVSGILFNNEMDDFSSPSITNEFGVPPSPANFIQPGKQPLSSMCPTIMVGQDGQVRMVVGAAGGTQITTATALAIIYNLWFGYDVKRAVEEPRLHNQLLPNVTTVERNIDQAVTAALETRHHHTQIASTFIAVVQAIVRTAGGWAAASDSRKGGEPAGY
Method: Competition experiments vs. γE-pNA for GGT: To perform the inhibition study, a serial dilution of γE-pNA was performed ranging from 1 mM to 3 μM in PBS with 1 mM Gly-Gly (dilution factor=0.5; pH 7.4; 10% DMSO; 100 μL) using a clear, flat bottom 96 well plate. GGT binding molecules, as indicated, were added to separate sets of triplicate wells to reach a final concentration of 10 and 100 μM. Before the addition of enzyme, the plate was cooled to 4° C. for 15 min. To initiate the assay, 10 μL of 50 U/L GGT was added to each well and an initial absorbance scan was performed. Subsequent scans were performed every 10 min for ˜2 h. In between each scan, the plates were stored at 37° C. in a humidified incubator to reduce solvent evaporation. The experiment was repeated in triplicate.
To probe the reactivity of Glu-DTC in comparison to the enzyme's natural substrate GSH, competition experiments were conducted against the colorimetric substrate L-glutamic acid γ-(p-nitroanilide) [E-pNA]. The colorimetric assay involves monitoring p-nitroaniline release by absorbance at 405 nm upon reaction of the probe substrate E-pNA with GGT in the presence of an inhibiting substrate, either Glu-DTC (FIG. 15A) or GSH (FIG. 15C).

22Rv1 cells [2] = assay: cells; assay type: cell-based, human; conditions: for IC50: Homo sapiens, 22Rv1, 1 μM CuSO4
Method: (§1) Antiproliferation assay: To determine the amount of Cu(II) required for cell studies a checkerboard assay was performed by varying the prodrug or drug concentration and Cu(II) concentration. 22RV1, LNCaP, PC3, MCF-7, and PWR-1E (5,000 cells/well) were seeded in 96-well plates with regular media (22Rv1, LNCaP, and PC-3 in RPMI with 10% FBS; MCF-7 in DMEM with 10% FBS; PWR-1E in Keratinocyte-SFM) and let adhere for 24 h. The following day, the media was replaced with serum free media and cells were treated as indicated for an additional 24 h or 72 h. Cell proliferation was measured using a fluorometric resazurin reduction method. 20 μL of 700 μM Resazurin (Sigma R7017) was added in each well and incubated at 37° C. for 2 h. Fluorescence at 580 nm was measured by exciting at 555 nm with a plate reader. Each experiment was performed in triplicate, and the experiments were repeated three times. Viability vs drug concentration plot from a representative experiment are shown with standard deviation from the experiment as error bar. The error bar in IC50 values represents standard deviation from three different experiments.

LNCaP cells = assay: cells; assay type: cell-based, human; conditions: Homo sapiens, LNCaP, LNCaP
Method: as §1

MCF-7 cells = assay: cells; assay type: cell-based, human; conditions: Homo sapiens, MCF7, MCF-7, 1 μM CuSO4, read-out: IC50 with 1 μM CuSO4
Method: as §1

PC-3 cells = assay: cells; assay type: cell-based, human; conditions: Homo sapiens, PC-3
Method: as §1

PWR-1E cells [3] = assay: cells; assay type: cell-based, human; conditions: PWR-1E, PWR-1E; for IC50: 1 μM CuSO4, read-out: IC50 with 1 μM CuSO4
Method: as §1

GGT [4] = molecular target: T1, GGT; assay: Copper-calcein competition assay with GGT exposure; assay type: biochemical; conditions: 20 U/L GGT, 1 mM Gly-Gly, 12.5 μM, 37° C.
Method: Plots at different timepoint of GGT exposure in accordance with one embodiment of the present disclosure. […] Solutions contained 1 μM CuSO4, 1 μM calcein, 20 U/L of GGT enzyme, and 12.5 μM of either Glu-DTC (grey) or DTC (black) in PBS buffer pH 7.4 with 1 mM Gly-Gly; 37° C.
Calcein assay: In a 96-well plate 12.5 μM prodrug or DTC chelator was dissolved in PBS (pH=7.4) from a 20 mM stock solution in DMSO. To each well Calcein (Cu) was added to reach a final concentration of 1 μM. The fluorescence of calcein was measured using a plate reader with λex=485 nm and λem=535 nm. After measuring the initial fluorescence, Gly-Gly and GGT were added in each well to make up to a final concentration of 1 mM and 20 U/L respectively. The plate was scanned at various time points to observe prodrug turnover via the development of a fluorescent signal caused by Cu removal from Calcein. The fluorescence emission was plotted as percentage with fluorescence of 1 μM Calcein in PBS as 100% and 1 μM (Cu)Calcein as 0%. The experiment was repeated in triplicate and standard deviations are represented as error bars.

GGT [5] = molecular target: T1, GGT; assay: GGT enzyme cleavage assay (LC/MS); assay type: biochemical; conditions: 100 μM, 100 U/L GGT, 15 min, then 500 μM CuSO4
Method: GGT Enzyme cleavage assay: In order to detect DTC liberated from prodrug by reactivity with GGT, 100 μM Glu-DTC was exposed to 100 U/L GGT in the presence of 1 mM Gly-Gly (PBS; pH 7.4; 37° C.). After 15 min, 500 μM CuSO4 was added to the vial, mixed well, then analyzed by LC/MS using an H2O: acetonitrile gradient for 25 min starting with 95% H2O:acetonitrile to 5% H2O:acetonitrile. A peak eluting at 12 min was observed corresponding to Glu-DTC as detected by MS, while a second peak eluting at 22 min corresponded to Cu(DTC)2 as detected by MS.

22Rv1 cells [6] = assay: Glu-DTC cleavage in cell culture, 22Rv1; assay type: cell-based, human; conditions: 100 μM
Method: (§2) Glu-DTC cleavage in cell culture: 22Rv1 and PWR-1E cell lines were plated into a 24 well plate (2×10^5 cells/well) with their respective growth media and allowed to adhere overnight. The following day, the growth media was removed, and each cell line was washed with PBS. 2 mL of 100 μM Glu-DTC in serum free media along with 1 mM Gly-Gly was added to the cells. One batch of 22Rv1 were treated with 2 mM Acivicin, a GGT inhibitor, along with Glu-DTC and Gly-Gly. 100 μL aliquots were taken at various time points over 72 h. Each aliquot was analyzed via HPLC to generate chromatographs of the progress of Glu-DTC digestion. Caffeine was added as reference and the ratio of Glu-DTC peak area with respect to caffeine was plotted as percentage considering initial Glu-DTC level as 100%.

PWR-1E cells [7] = assay: Glu-DTC cleavage in cell culture, PWR-1E; assay type: cell-based, human; conditions: GGT(−), 100 μM, 24 h
Method: as §2

- Ki (GGT [1]): 99000 ± 7000 nM
SMILES: N[C@@H](CCC(=O)N[C@@H](CS)C(=O)NCC(=O)O)C(=O)O [GSH, glutathione, reference compound]

- IC50 (22Rv1 cells [2]; 24 h, read-out: IC50): 800 nM
- IC50 (22Rv1 cells [2]; 24 h, read-out: IC50 with 1 μM CuSO4): 760 ± 90 nM
- IC50 (22Rv1 cells [2]; 72 h, read-out: IC50 with 1 μM CuSO4): 290 ± 110 nM
- IC50 (22Rv1 cells [2]; 72 h continuous exposure, read-out: IC50): 300 nM
- IC50 (LNCaP cells; 24 h, 24 h, 1 μM CuSO4, read-out: IC50): 800 nM
- IC50 (LNCaP cells; 24 h, 24 h, 1 μM CuSO4, read-out: IC50 with 1 μM CuSO4): 620 ± 40 nM
- IC50 (LNCaP cells; 24 h, initial experiments, after 24 h, 1 μM supplemental Cu(II), read-out: IC50): 760 nM
- IC50 (LNCaP cells; 72 h, 72 h, 1 μM CuSO4, read-out: IC50 with 1 μM CuSO4): 500 ± 90 nM
- IC50 (MCF-7 cells; 24 h): 1700 ± 100 nM
- IC50 (MCF-7 cells; 72 h): 480 ± 40 nM
- IC50 (PC-3 cells; initial experiments, PC3, 24 h, above maximum tested 10 μM, obtained by extrapolation of the curve (FIG. 10A), read-out: IC50): ~12000 nM
- IC50 (PC-3 cells; 24 h, 1 μM CuSO4, read-out: IC50 with 1 μM CuSO4): 5500 ± 100 nM
- IC50 (PC-3 cells; 72 h, 1 μM CuSO4, read-out: IC50 with 1 μM CuSO4): 1320 ± 250 nM
- IC50 (PWR-1E cells [3]; Homo sapiens, 24 h, 24 h): > 15000 nM
- IC50 (PWR-1E cells [3]; Homo sapiens, 72 h, 72 h): 1500 nM
- IC50 (PWR-1E cells [3]; 24 h): 16800 ± 4400 nM
- IC50 (PWR-1E cells [3]; 72 h): 1550 ± 20 nM
- Ki (GGT [1]): 23000 ± 5000 nM
- stability time with GGT inhibitor Acivicin (22Rv1 cells [6]; 22Rv1, co-exposure with Acivicin): at least 24 h
- level of intact Glu-DTC in supernatant with Acivicin (22Rv1 cells [6]; 22Rv1 treated with GGT-inhibitor Acivicin, 24 h): unchanged
- level of intact Glu-DTC in supernatant (PWR-1E cells [7]): unchanged
SMILES: CCN(CC)C(=S)SCc1ccc(NC(=O)CC[C@H](N)C(=O)O)cc1 [Glu-DTC]
- Cu(II) added to the growth medium required for antiproliferative activity (22Rv1 cells [2]; checkerboard pilot studies in 22Rv1 cells): 300 nM
- toxicity (PWR-1E cells [3]; initial experiments, within the tested concentration of 10 μM): did not show much toxicity
- calcein fluorescence after exposure to GGT enzyme (GGT [4]): recovery of calcein fluorescence over time
- prodrug cleavage and Cu(DTC)2 formation by LC/MS (GGT [5]): decrease in Glu-DTC peak and formation of Cu(DTC)2
- level of intact Glu-DTC in supernatant (22Rv1 cells [6]; 22Rv1, 24 h, 1 mM GlyGly): significant loss of detectable Glu-DTC; also recorded: depletion was observed
